Measurements reported in PubChem BioAssay (NCI).
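Cells were grown in 96-well plates and exposed to each compound for 48 hours at five concentrations; endpoints were interpolated linearly between bracketing concentrations, or set to the highest concentration if not reached. GI50 = concentration required for 50% inhibition of growth. TGI: concentration producing complete growth inhibition.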

Experiments:
Experiment in all cases: NCI-60 cell line screen, 48 h
SR leukemia = system: SR leukemia
HOP-62 NSCLC = system: HOP-62 NSCLC
K-562 leukemia = system: K-562 leukemia
MALME-3M melanoma = system: MALME-3M melanoma
NCI-H226 lung = system: NCI-H226 lung
NCI-H522 lung = system: NCI-H522 lung
SF-268 CNS = system: SF-268 CNS
CAKI-1 renal = system: CAKI-1 renal
HL-60(TB) leukemia = system: HL-60(TB) leukemia
OVCAR-4 ovarian = system: OVCAR-4 ovarian

O=C1NN(c2ccc(C(=O)O)cc2)C(=O)/C1=C\c1ccc([N+](=O)[O-])o1
GI50 (SR leukemia): 32.9 µM
TGI (SR leukemia): > 100 µM
GI50 (HOP-62 NSCLC): > 100 µM
TGI (HOP-62 NSCLC): > 100 µM
GI50 (K-562 leukemia): 27.3 µM
TGI (K-562 leukemia): 72.1 µM
GI50 (MALME-3M melanoma): 20.7 µM
TGI (MALME-3M melanoma): 41.2 µM
GI50 (NCI-H226 lung): > 100 µM
TGI (NCI-H226 lung): > 100 µM
GI50 (NCI-H522 lung): 15.7 µM
TGI (NCI-H522 lung): 32.8 µM
GI50 (SF-268 CNS): 61.2 µM
TGI (SF-268 CNS): > 100 µM
GI50 (CAKI-1 renal): 16.1 µM
TGI (CAKI-1 renal): 31.1 µM
GI50 (HL-60(TB) leukemia): 34.5 µM
TGI (HL-60(TB) leukemia): 91.7 µM

O=S(=O)(O)O.[NH-]C1CCCCC1[NH-].[Pt+2] (stereo unspecified)
GI50 (HOP-62 NSCLC): > 100 µM
TGI (HOP-62 NSCLC): > 100 µM
GI50 (K-562 leukemia): 37 µM
TGI (K-562 leukemia): > 100 µM
GI50 (MALME-3M melanoma): 50.2 µM
TGI (MALME-3M melanoma): > 100 µM
GI50 (NCI-H522 lung): 23.6 µM
TGI (NCI-H522 lung): > 100 µM
GI50 (SF-268 CNS): > 100 µM
TGI (SF-268 CNS): > 100 µM
GI50 (OVCAR-4 ovarian): 67.2 µM
TGI (OVCAR-4 ovarian): > 100 µM
GI50 (HL-60(TB) leukemia): 19.3 µM
TGI (HL-60(TB) leukemia): > 100 µM

O=c1cccccc1NCCOCCNc1cccccc1=O
TGI (HOP-62 NSCLC): > 100 µM
TGI (K-562 leukemia): > 100 µM
TGI (MALME-3M melanoma): > 100 µM
TGI (NCI-H226 lung): > 100 µM
TGI (NCI-H522 lung): > 100 µM
TGI (SF-268 CNS): > 100 µM
TGI (OVCAR-4 ovarian): > 100 µM
TGI (CAKI-1 renal): > 100 µM
TGI (HL-60(TB) leukemia): > 100 µM

Cc1cc2c(cc1Cl)SC1=CC(=O)N(c3ccccc3)C1=NS2(=O)=O
GI50 (HOP-62 NSCLC): 46 µM
TGI (HOP-62 NSCLC): > 100 µM
GI50 (MALME-3M melanoma): 44.6 µM
TGI (MALME-3M melanoma): > 100 µM
GI50 (NCI-H226 lung): 66.7 µM
TGI (NCI-H226 lung): > 100 µM
GI50 (NCI-H522 lung): 67.1 µM
TGI (NCI-H522 lung): > 100 µM
GI50 (SF-268 CNS): 92.3 µM
TGI (SF-268 CNS): > 100 µM
GI50 (OVCAR-4 ovarian): 65.3 µM
TGI (OVCAR-4 ovarian): > 100 µM
GI50 (CAKI-1 renal): > 100 µM
TGI (CAKI-1 renal): > 100 µM
GI50 (HL-60(TB) leukemia): 23.8 µM
TGI (HL-60(TB) leukemia): 63.8 µM

COc1cc(C(=O)c2ccc3c(c2)OCO3)cc(OC)c1OC
GI50 (SR leukemia): 0.348 µM
TGI (SR leukemia): > 87.7 µM
GI50 (HOP-62 NSCLC): 3.34 µM
TGI (HOP-62 NSCLC): > 100 µM
GI50 (K-562 leukemia): 0.482 µM
TGI (K-562 leukemia): > 100 µM
GI50 (NCI-H226 lung): 8.76 µM
TGI (NCI-H226 lung): > 100 µM
GI50 (NCI-H522 lung): 1.4 µM
TGI (NCI-H522 lung): 8.84 µM
GI50 (SF-268 CNS): 5.56 µM
TGI (SF-268 CNS): > 100 µM
GI50 (OVCAR-4 ovarian): 5.14 µM
TGI (OVCAR-4 ovarian): > 100 µM
GI50 (CAKI-1 renal): 1.88 µM
TGI (CAKI-1 renal): > 27.4 µM
GI50 (HL-60(TB) leukemia): 0.609 µM
TGI (HL-60(TB) leukemia): 9.02 µM

COc1ccc(C(=O)C(c2ccc(OC)cc2)C2(O)C(=O)Nc3ccccc32)cc1 (stereo unspecified)
TGI (SR leukemia): > 100 µM
TGI (K-562 leukemia): > 100 µM
TGI (MALME-3M melanoma): > 100 µM
TGI (NCI-H226 lung): > 100 µM
TGI (NCI-H522 lung): > 100 µM
TGI (SF-268 CNS): > 100 µM
TGI (CAKI-1 renal): > 100 µM
TGI (HL-60(TB) leukemia): > 100 µM

Cc1ccc(NC(=O)CCC(CC(=O)C(C)(C)C)=NNC(=O)C(=O)NN)cc1C
TGI (HOP-62 NSCLC): > 100 µM
TGI (K-562 leukemia): > 100 µM
TGI (MALME-3M melanoma): > 100 µM
TGI (NCI-H226 lung): > 100 µM
TGI (NCI-H522 lung): > 100 µM
TGI (SF-268 CNS): > 100 µM
TGI (OVCAR-4 ovarian): > 100 µM
TGI (CAKI-1 renal): > 100 µM
TGI (HL-60(TB) leukemia): > 100 µM

O=C(O)C(CP(=O)(O)O)=C(Cl)Cl
TGI (SR leukemia): > 100 µM
TGI (HOP-62 NSCLC): > 100 µM
TGI (MALME-3M melanoma): > 100 µM
TGI (NCI-H226 lung): > 100 µM
TGI (SF-268 CNS): > 100 µM
TGI (HL-60(TB) leukemia): > 100 µM

CC(=O)OC(/C=C1/C=CC(=O)O1)COC(=O)c1ccccc1 (stereo unspecified)
TGI (HOP-62 NSCLC): > 31.2 µM
TGI (K-562 leukemia): > 31.2 µM
TGI (MALME-3M melanoma): > 31.2 µM
TGI (NCI-H226 lung): > 31.2 µM
TGI (NCI-H522 lung): > 31.2 µM
TGI (SF-268 CNS): > 31.2 µM
TGI (OVCAR-4 ovarian): > 31.2 µM
TGI (CAKI-1 renal): > 31.2 µM
TGI (HL-60(TB) leukemia): > 31.2 µM

COC(=O)/C=C1/CCC2[C@@H](C(=O)CC3[C@]2(C)CCC[C@@]3(C)C(=O)OC)C1C (stereo partly specified)
TGI (HOP-62 NSCLC): 39.5 µM
TGI (K-562 leukemia): 14.2 µM
TGI (MALME-3M melanoma): 34.8 µM
TGI (NCI-H226 lung): 46.1 µM
TGI (NCI-H522 lung): 19.7 µM
TGI (SF-268 CNS): 38.6 µM
TGI (OVCAR-4 ovarian): 21.6 µM
TGI (CAKI-1 renal): 17.4 µM
TGI (HL-60(TB) leukemia): 7.81 µM
